Assay results published in PMC9598656, “In Vitro Activity of Robenidine Analogues NCL259 and NCL265 against Gram-Negative Pathogens” (Antibiotics, 2022).
Converted amounts (≈) assume the structure as drawn.

Tests used:
Format in all cases: cell-based
[1] = system: sheep red blood cells (SRBCs); assay: Hemolysis assay; conditions: 1 h
Protocol: The haemolytic activity of the compounds was determined using 1% sheep red blood cells (SRBCs), as described previously. […]. After incubation at 37 °C with shaking at 100 rpm for 1 h, the trays were centrifuged at 1000× g for 3 min and 100 μL of supernatant from each well was transferred into a new 96-well tray. Absorbance was measured at A450nm on a Multiskan Ascent 354 Spectrophotometer (Labsystems) and plotted against each dilution. The haemolytic titre (HC50) of each compound was determined as the reciprocal of the dilution at which 50% of SRBCs were lysed at A450nm.

[2] = system: MDBK (normal Madin–Darby bovine kidney cell line); assay: In vitro cytotoxicity, WST-1; conditions: Bos taurus, 24 h
Text: (§1) Potential toxicity of NCL259 and NCL265 to mammalian cells relative to the parent compound (NCL812) was examined using Caco-2 (human colorectal adenocarcinoma cell line), HEL 299 (non-cancerous human lung fibroblast cell line), Hep G2 (human hepatocellular carcinoma cell line), MCF-7 (human mammary gland adenocarcinoma cell line), MDBK (normal Madin–Darby bovine kidney cell line) and Vero (normal adult African green monkey cell line), essentially as described previously. Toxicity to the cell lines was performed using serial two-fold dilutions of each compound from 128 to 1 μg/mL in duplicates in flat bottom 96 well tissue culture trays (Sarstedt 83.3924) containing approximately 2 × 10^4 cells per well in antibiotic-free Dulbecco’s Modified Eagle’s Medium (DMEM; Gibco Cat No: 12430; Thermo Fisher Scientific, Scoresby, VIC, Australia) consisting of 10% (v/v) fetal bovine serum at 37 °C, 5% CO2 for 24 h. Duplicate wells containing ampicillin at 128 to 1 μg/mL were used as controls. Thereafter, 10% (v/v) of the WST-1 cell proliferation assay reagent (Cat No: 05015944001; Roche Life Science, North Ryde, NSW, Australia) was added to each well, the trays were further incubated at 37 °C, 5% CO2 for 1 h and absorbance read at A450nm on a Multiskan Ascent 354 Spectrophotometer (Labsystems, Lilydale, VIC, Australia). The inhibitory concentration of each compound was determined as the half maximal inhibitory concentration (IC50) at A450nm.

[3] = system: MCF-7 (human mammary gland adenocarcinoma cell line); assay: In vitro cytotoxicity, WST-1; conditions: MCF7, 24 h
Text: as §1

[4] = system: Hep G2 (human hepatocellular carcinoma cell line); assay: In vitro cytotoxicity, WST-1; conditions: HepG2, 24 h
Text: as §1

[5] = system: HEL 299 (non-cancerous human lung fibroblast cell line); assay: In vitro cytotoxicity, WST-1; conditions: HEL 299, 24 h
Text: as §1

[6] = system: Vero (normal adult African green monkey cell line); assay: In vitro cytotoxicity, WST-1; conditions: Chlorocebus sabaeus, 24 h
Text: as §1

[7] = system: Caco-2 (human colorectal adenocarcinoma cell line); assay: In vitro cytotoxicity, WST-1; conditions: Caco-2, 24 h
[8] = first of two independent experiments
[9] = second of two independent experiments

What does the source list for `CC1(C)S[C@@H]2[C@H](NC(=O)[C@H](N)c3ccccc3)C(=O)N2[C@H]1C(=O)O` [Ampicillin, reference compound]?
HC50 ([1]; 1% SRBC, first of two independent experiments): >128, >128 μg/mL; HC50 ([1]; 1% SRBC, second of two independent experiments): >128, >128 μg/mL; IC50 [2, 8]: > 128 µg/mL; IC50 [2, 9]: > 128 µg/mL; IC50 [3, 8]: > 128 µg/mL; IC50 [3, 9]: > 128 µg/mL; IC50 [4, 8]: > 128 µg/mL; IC50 [4, 9]: > 128 µg/mL; IC50 [5, 8]: > 128 µg/mL; IC50 [5, 9]: > 128 µg/mL; IC50 [6, 8]: > 128 µg/mL; IC50 [6, 9]: > 128 µg/mL

With `N=C(N/N=C/c1ccc(Cl)cc1)N/N=C/c1ccc(Cl)cc1` [NCL812, Robenidine] as the compound, how does the HC50 ([1]; sheep) read?
Its HC50 is 32, 32 μg/mL.

What about the IC50 [2, 8] of the same compound?
The IC50 was 8 µg/mL (≈ 23.9 µM).

What about the IC50 [2, 9] of the same compound?
The IC50 was 12 µg/mL (≈ 35.9 µM).

What about the IC50 [3, 8] of the same compound?
Its IC50 is 8 µg/mL (≈ 23.9 µM).

What about the IC50 [3, 9] of the same compound?
Its IC50 is 12 µg/mL (≈ 35.9 µM).

What about the IC50 [4, 8] of the same compound?
The IC50 was 6 µg/mL (≈ 18 µM).

What about the IC50 [4, 9] of the same compound?
The IC50 was 8 µg/mL (≈ 23.9 µM).

What about the IC50 [5, 8] of the same compound?
The IC50 was 8 µg/mL (≈ 23.9 µM).

And the IC50 [5, 9]?
Its IC50 is 6 µg/mL (≈ 18 µM).

What about the IC50 [6, 8] of the same compound?
The IC50 was 8 µg/mL (≈ 23.9 µM).

And the IC50 [6, 9]?
Its IC50 is 4 µg/mL (≈ 12 µM).

And the IC50 [7, 8]?
Its IC50 is 8 µg/mL (≈ 23.9 µM).

What about the IC50 [7, 9] of the same compound?
The IC50 was 12 µg/mL (≈ 35.9 µM).
